Tests used:
Format in all cases: in vivo
restenosis [1] = assay: Patients with coronary stenosis treated to prevent restenosis
Source text: BSO therapy is continued for one week.
A person with blue eyes and gray hair presents with chest pain. […] The patient undergoes balloon angioplasty and placement of a Palmaz-Schatz stent, which is P^32-implanted and coated with a cyclodextran polymer to which BSO is attached by an ester linkage.
A patient similar to the one described above undergoes balloon angioplasty and placement of a Palmaz-Schatz stent which is coated with cyclodextran polymer to which ethyl maleate is attached by an ester linkage. […]
A person with restenosis six months post angioplasty has a Palmaz-Schatz stent placed. The stent is coated with a porous polymer containing 10% of the siderophore ferrioxamine B and 0.1% each of interleukin-1 and interferon-gamma. The latter agents induce the local expression of the inducible isoform of nitric oxide synthase. […]

trypanosomes = assay: Patient with trypanosome infection; details: L-buthionine-S-sulfoximine 3 mmol/kg p.o. every 4 hours and S-nitrosoglutathione iv 10 mg/kg every 8 hours, one week
Experimental: A person presents with high fever, moderate lymphadenopathy and reports that they have lost 40 pounds in the last month, two months after returning from a safari in sub-Saharan Africa. On questioning, the patient reports having developed during the safari an ulcer on their forearm two days following a bite by a fly. […] The patient is hospitalized and given L-buthionine-S-sulfoximine at a dose of 3 mmol/kg p.o. every 4 hours for one week. In addition, the patient receives S-nitrosoglutathione iv at a dose of 10 mg/kg every 8 hours for one week.

[2] = system: benign prostatic hypertrophy; assay: Patients with benign prostatic hypertrophy
Source text: A person presents with a history of urinary hesitancy and multiple awakenings during the night. They are given a diagnosis of benign prostatic hypertrophy. Under stereotactic guidance, the patient's enlarged prostate gland is implanted with several porus polymer pellets designed to slowly release L-buthionine-S-sulfoximine (1 μmol/hr) and S-nitrosocysteine (1 μmol/hr). […] They then have nearly normal urine flow and usually wakes no more than once per night.
A similar patient with benign prostatic hypertrophy and very marked enlargement of their prostate is treated with NO-substituted finasteride (NO-substituted Proscar; 5 mg/day). NO-substitution is accomplished by replacement of the tert-butyl amine moiety of finasteride with S-nitroso-β-thio-tert-butyl amine.
A person with benign prostatic hypertrophy is treated with Finisteride (Proscar: 5 mg/day) and oral buthionine-S-sulfoximine at a dose of 10 mmol/kg four time/day.

restenosis [3] = assay: Patients with coronary stenosis treated to prevent restenosis; details: BSO 4 mmol/kg four times a day intracoronary for one week, 32P-implanted Palmaz-Schatz stent

CCCCS(=N)(=O)CC[C@H](N)C(=O)O (stereo partly drawn) [L-buthionine-S-sulfoximine]
clinical outcome (restenosis [1]; P^32-implanted stent coated with cyclodextran polymer with BSO attached by ester linkage): clinical restenosis does not occur
clinical outcome (restenosis [1]; verapamil 80 mg three times a day p.o., BSO 4 mmol/kg i.v. four times a day, NO-releasing polymer stent): repeat angiogram at six months shows no restenosis
clinical outcome (trypanosomes): blood smear is free of trypanosomes
clinical outcome ([2]; Finisteride 5 mg/day and oral buthionine-S-sulfoximine 10 mmol/kg four time/day): symptoms of hesitancy improve significantly over two months
clinical outcome ([2]; prostate-implanted polymer pellets releasing each agent at 1 μmol/hr): symptoms improve over a period of three weeks
clinical outcome (restenosis [3]): repeat of their angiogram shows no restenosis
